{
  "source": "patent US10300055B2",
  "about": "“Treatment of parkinson's disease through ARFGAP1 inhibition” (Dalhousie University, priority 2014, dated 2019)",
  "data": [
    {"target": "T1, hArfGAP1 (human ArfGAP1) (Homo sapiens, UniProt Q8N6T3)", "T1 construct": "expressed in transfected cells; host or cells: Saccharomyces cerevisiae strain PPY17:114-3B-141-A (gcs1::NatR, pdr5::HIS3, snq2::TRP1), galactose-induced", "T1 sequence (Q8N6T3 whole entry)": "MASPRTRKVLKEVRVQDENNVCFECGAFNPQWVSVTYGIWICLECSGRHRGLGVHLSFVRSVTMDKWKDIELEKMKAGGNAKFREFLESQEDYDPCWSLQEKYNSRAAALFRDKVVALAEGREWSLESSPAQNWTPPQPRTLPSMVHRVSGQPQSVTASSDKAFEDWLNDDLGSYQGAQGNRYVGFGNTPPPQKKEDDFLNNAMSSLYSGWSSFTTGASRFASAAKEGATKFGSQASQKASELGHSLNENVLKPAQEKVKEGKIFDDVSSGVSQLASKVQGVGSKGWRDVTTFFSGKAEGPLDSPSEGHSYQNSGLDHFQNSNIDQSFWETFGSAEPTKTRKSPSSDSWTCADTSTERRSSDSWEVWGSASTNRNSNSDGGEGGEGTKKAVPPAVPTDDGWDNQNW", "assay": "Yeast growth restoration screen: S. cerevisiae gcs1 knockout strain expressing hArfGAP1", "assay_type": "cell-based", "conditions": "retest at various concentrations, FIG. 5; A600; compared with 3B-VEC empty vector strain", "from_the_text": "Overexpression of heterologous proteins in the yeast Saccharomyces cerevisiae often inhibits its growth, while inhibitors of the overexpressed proteins can restore growth. These simple observations form the basis of a powerful assay to identify inhibitors of such proteins. An expression plasmid for the inducible expression of a gene of interest is introduced into a yeast strain rendered more sensitive to chemicals by deletion of efflux pumps. Protein expression is induced, cells are exposed to test chemicals, and growth is measured by optical density at 600 nm (OD600 or A600) reading.\nIn the instant case, a S. cerevisiae gcs1 knockout strain is employed bearing a vector expressing the heterologous protein hArfGAP1 (human ArfGAP1, the human ortholog of yeast GCS1). Generally, expression of ArfGAP1 will suppress growth of gcs1 knockout yeast and thus small molecules that inhibit ArfGAP1 will lead to observable increases in growth. This in turn allows for the direct identification of small molecules that could be used to treat LRRK2-mutation induced PD.\nPPY17:114-3B-vec (gcs1::NatR, pdr5::HIS3, snq2::TRP1, ura3, ade2, carrying plasmid pRS315) [empty vector control strain]; PPY17:114-3B-141-A (gcs1::NatR, pdr5::HIS3, snq2::TRP1, ura3, ade2, carrying plasmid pPP16:141 pGAL1-hArfGAP1) [human ArfGAP1-expressing strain].\n1. The day before screening, the control strain containing the empty plasmid and the selected test strain bearing the plasmid with the gene of interest were inoculated into 2 mL of SC selection medium containing 2% glucose. Cells were grown overnight at 30° C. with shaking at 220 rpm. Note: it can be observed that the yeast strain expressing human expression vector and the yeast strain containing the empty vector grow at the same rate in glucose, which represses ArfGAP1 expression.\n4. The pellet was suspended in 1-mL sterile water and the A 600 was measured. […]\n9. Stacks of five plates were shaken on a vortexer at low speed (e.g., setting 4 of a Genie 2 Vortex mixer) for 90 s to resuspend the yeast cells, and the A 600 was measured using a 96-well plate reader. […]", "values": [
      {"smiles": "O=[N+]([O-])c1ccc(N2CCN(Cc3cccs3)CC2)cc1", "note": "[compound 5261344]", "growth of yeast ArfGAP1 gcs1 knockout strains": "dose-dependent growth"},
      {"smiles": "CC(=O)c1ccc(N2CCN(CC3=CC[C@H]4C[C@@H]3C4(C)C)CC2)cc1", "note": "[compound 5429814]", "growth of yeast ArfGAP1 gcs1 knockout strains": "dose-dependent growth"},
      {"smiles": "C/C=C(\\C)CN1CCN(c2ccc(C(C)=O)cc2)CC1", "note": "[compound 5431942]", "growth of yeast ArfGAP1 gcs1 knockout strains": "dose-dependent growth"}
    ]}
  ]
}
